Measured values from patent US20090133153A1, “Polypeptide participating in pyridoxine biosynthesis, polynucleotide encoding the polypetide and those uses” (Genomine, Inc, priority 2004, published 2009).

Tests used:
[1] = test system: T2 Arabidopsis thaliana transformant (anti-sense AtPDX4); test: Pyridoxine auxotrophy test: T2 seeds of anti-sense AtPDX4 transformant on MS medium with pyridoxine; type: in vivo; conditions: 2.5 mg/L pyridoxine-HCl; for seeds germinated to grow: MS medium with 12 mg/L PPT
Experimental: Arabidopsis thaliana was cultivated in a soil-filled pot or cultivated in a petri dish by using MS medium (Murashige and Skoog salts, Sigma, U.S.A.) containing 2% sucrose (pH 5.7) and 0.8% agar. In this study, vitamin B6 group (including pyridoxine) was excluded from the vitamin mixture used in the MS medium. The culture pot was incubated at 22° C. in a growth chamber and controlled by 16/8 hours of light and dark cycle. Meanwhile, in order to investigate whether the plant transformant becomes pyridoxine auxotroph mutant or not after transformed with anti-sense construct against AtPDX4 gene, T2 seed of Arabidopsis thaliana transformant was collected from T1 transformant and cultivated to estimate the reaction by adding pyridoxine. Above all, MS medium containing 12 mg/L PPT (phosphinothricine, Duchefa, Netherlands) was prepared and T2 seeds were treated at a low temperature (4° C.) for 3 days. 120 of T2 seeds were cultivated respectively on 2 (total 4) petri dishes of MS media (30 seeds per petri dish) with or without 2.5 mg/L of pyridoxine-HCl (Sigma, USA), so as to select T2 Arabidopsis thaliana transformant.

[2] = test system: T2 Arabidopsis thaliana transformant (anti-sense AtPDX4); test: Phenotype recovery of T2 anti-sense AtPDX4 transformant by vitamin B6's; type: in vivo; conditions: 0.5 mg/L, 7 days
Experimental: Arabidopsis thaliana was cultivated in a soil-filled pot or cultivated in a petri dish by using MS medium (Murashige and Skoog salts, Sigma, U.S.A.) containing 2% sucrose (pH 5.7) and 0.8% agar. In this study, vitamin B6 group (including pyridoxine) was excluded from the vitamin mixture used in the MS medium. The culture pot was incubated at 22° C. in a growth chamber and controlled by 16/8 hours of light and dark cycle.
Above all, in order to select T2 Arabidopsis transformant, MS medium containing 12 mg/L PPT (phosphinothricine, Duchefa, Netherlands) was prepared and T2 seeds were treated at a low temperature (4° C.) for 3 days. 120 of T2 seeds were cultivated on petri dishes containing MS media with or without 0.5 mg/L of pyridoxine-HCl (Sigma, USA), pyridoxamine-2HCl (Sigma, USA), pyridoxal-HCl (Sigma, USA) or pyridoxal-5-phosphate (Sigma, USA).

SMILES: Cc1ncc(CO)c(CO)c1O [pyridoxine, 2-methyl-3-hydroxy-4,5-di(hydroxymethyl)pyridine]
- phenotype compared with wild type Arabidopsis thaliana ([1]; 7 days): not to change in the phenotype remarkably
- phenotype compared with wild type Arabidopsis ([1]; 19 days): not to change in the phenotype such as growth retardation
- seeds germinated to grow ([1]; 7 days): 22 seeds
- seeds germinated to grow ([1]; 19 days): 24 seeds
- phenotype of plant transformant [2]: not to change in the phenotype remarkably
- seeds germinated to grow ([2]; MS medium with 12 mg/L PPT): 26 seeds
